Data published in publication PMC6044955 (ACS Omega, 2017).

How the values were obtained:
Format in all cases: cell-based
[1] = target: hα3β4 nAChR (Homo sapiens, UniProt P30926+P32297)
[2] = target: hα3β2 nAChR (Homo sapiens, UniProt P17787+P32297)
[3] = target: hα9α10 nAChR (Homo sapiens, UniProt Q9GZZ6+Q9UGM1)
Sequence of hα9α10 nAChR (Q9UGM1 26-479 limits assumed): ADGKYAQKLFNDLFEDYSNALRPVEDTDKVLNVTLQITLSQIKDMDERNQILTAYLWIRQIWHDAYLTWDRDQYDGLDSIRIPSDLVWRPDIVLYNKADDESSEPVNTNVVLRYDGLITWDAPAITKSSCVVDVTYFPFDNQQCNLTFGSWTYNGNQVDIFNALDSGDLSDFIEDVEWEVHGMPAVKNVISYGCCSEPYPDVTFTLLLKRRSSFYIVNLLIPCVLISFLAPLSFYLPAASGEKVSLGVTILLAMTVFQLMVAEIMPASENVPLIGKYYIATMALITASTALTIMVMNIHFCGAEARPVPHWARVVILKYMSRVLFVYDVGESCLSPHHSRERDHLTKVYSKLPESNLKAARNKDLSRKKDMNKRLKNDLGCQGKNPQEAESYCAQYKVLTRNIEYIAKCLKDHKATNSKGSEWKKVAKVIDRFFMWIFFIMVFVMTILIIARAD
Sequence of hα9α10 nAChR (Q9GZZ6 25-450): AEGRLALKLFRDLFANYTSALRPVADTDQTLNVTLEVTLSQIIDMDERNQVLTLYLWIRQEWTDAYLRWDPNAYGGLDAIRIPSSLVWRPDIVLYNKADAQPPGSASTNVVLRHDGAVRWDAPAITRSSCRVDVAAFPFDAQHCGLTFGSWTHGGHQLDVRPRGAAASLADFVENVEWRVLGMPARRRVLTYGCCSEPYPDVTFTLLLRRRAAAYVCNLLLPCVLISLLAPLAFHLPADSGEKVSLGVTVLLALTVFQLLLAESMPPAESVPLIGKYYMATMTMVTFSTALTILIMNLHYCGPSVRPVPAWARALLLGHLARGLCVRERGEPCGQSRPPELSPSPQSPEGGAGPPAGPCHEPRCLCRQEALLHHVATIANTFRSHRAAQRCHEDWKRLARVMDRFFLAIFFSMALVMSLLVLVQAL

Sequence of hα3β2 nAChR (P32297 32-505): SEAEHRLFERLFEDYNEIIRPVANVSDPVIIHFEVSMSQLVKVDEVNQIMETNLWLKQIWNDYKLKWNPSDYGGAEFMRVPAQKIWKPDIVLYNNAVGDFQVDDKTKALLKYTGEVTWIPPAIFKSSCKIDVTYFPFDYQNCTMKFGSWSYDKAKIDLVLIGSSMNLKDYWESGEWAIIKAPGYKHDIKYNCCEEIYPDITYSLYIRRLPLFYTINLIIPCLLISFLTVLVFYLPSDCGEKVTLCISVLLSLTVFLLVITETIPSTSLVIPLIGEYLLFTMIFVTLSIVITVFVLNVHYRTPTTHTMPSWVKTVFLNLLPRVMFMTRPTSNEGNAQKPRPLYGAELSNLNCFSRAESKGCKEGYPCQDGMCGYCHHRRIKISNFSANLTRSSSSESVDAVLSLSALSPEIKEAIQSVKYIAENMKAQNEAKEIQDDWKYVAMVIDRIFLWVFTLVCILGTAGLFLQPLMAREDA
Sequence of hα3β2 nAChR (P17787 26-502): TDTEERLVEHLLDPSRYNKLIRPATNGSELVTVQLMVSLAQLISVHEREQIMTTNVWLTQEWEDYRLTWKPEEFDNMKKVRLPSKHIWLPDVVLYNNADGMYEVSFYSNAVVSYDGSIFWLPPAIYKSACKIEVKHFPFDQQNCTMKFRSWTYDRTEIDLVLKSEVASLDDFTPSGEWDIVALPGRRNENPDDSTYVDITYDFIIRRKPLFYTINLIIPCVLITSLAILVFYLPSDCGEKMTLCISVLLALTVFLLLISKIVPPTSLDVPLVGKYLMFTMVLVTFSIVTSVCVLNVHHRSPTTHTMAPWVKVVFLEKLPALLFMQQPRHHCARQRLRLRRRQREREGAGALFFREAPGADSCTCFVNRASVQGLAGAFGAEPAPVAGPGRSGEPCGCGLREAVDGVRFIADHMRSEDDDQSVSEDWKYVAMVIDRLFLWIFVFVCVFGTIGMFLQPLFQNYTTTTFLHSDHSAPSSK
Sequence of hα3β4 nAChR (P32297 32-505): as the sequence (P32297 32-505) above
Sequence of hα3β4 nAChR (P30926 22-498): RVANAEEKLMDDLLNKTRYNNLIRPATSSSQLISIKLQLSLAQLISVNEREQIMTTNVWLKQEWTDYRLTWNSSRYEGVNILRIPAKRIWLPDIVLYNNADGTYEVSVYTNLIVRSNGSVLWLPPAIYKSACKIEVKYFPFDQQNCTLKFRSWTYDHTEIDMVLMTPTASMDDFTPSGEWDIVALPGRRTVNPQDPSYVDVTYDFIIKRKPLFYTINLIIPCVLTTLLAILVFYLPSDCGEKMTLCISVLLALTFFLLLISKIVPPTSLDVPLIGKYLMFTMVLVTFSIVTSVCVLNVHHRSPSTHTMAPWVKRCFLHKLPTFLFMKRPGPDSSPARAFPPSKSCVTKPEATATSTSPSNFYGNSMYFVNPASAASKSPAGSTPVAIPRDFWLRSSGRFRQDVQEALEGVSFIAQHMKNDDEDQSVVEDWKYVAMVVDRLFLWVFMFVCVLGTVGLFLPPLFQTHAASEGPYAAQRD

| Substance | Inhibition of the ACh-evoked current amplitude at hα3β4 nAChR [1] | Inhibition of the ACh-evoked current amplitude at hα3β2 nAChR [2] | Inhibition of ACh-evoked current at hα9α10 nAChR [3] | Inhibition of ACh-evoked current at hα3β2 nAChR [2] |
| --- | --- | --- | --- | --- |
| α-conotoxin BuIA | > 90% | > 90% | – | – |
| α-conotoxin Vc1.1 | – | – | complete inhibition | complete inhibition |
